In assay [1] the target is T1, PTPN2 (Homo sapiens, UniProt P17706).
T1 construct: expressed in transfected cells; host or cells: 293T (293T.109 HiBiT-PTPN2 line; parental 293T WT from ATCC)
T1 sequence (P17706 1-415): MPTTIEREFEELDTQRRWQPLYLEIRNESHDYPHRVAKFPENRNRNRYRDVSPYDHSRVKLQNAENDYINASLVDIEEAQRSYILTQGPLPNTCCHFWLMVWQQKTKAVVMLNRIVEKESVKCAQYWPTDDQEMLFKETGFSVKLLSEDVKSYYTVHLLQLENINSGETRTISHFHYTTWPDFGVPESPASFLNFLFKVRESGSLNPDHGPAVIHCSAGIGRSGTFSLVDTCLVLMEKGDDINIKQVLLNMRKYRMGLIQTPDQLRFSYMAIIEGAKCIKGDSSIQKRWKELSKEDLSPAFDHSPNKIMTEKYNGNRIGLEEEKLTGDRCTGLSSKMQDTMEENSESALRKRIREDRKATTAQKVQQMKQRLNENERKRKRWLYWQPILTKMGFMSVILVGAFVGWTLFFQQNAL
Put plainly: HiBiT-Degradation 293T.109 PTPN2 (Nano-Glo HiBiT Lytic Assay). In kind it is cell-based. The following applies: 293T.109 (HiBiT-PTPN2) cells, 24.0 hours. In short, it runs like this: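 Luminescence from a lytic HiBiT read gave PTPN2 levels after 24 h compound exposure at 37° C. Compounds were tested at 11 half-log points from a 10 μM top concentration, in duplicate. The cells were 293T engineered with an N-terminal HiBiT–PTPN2 fusion, plated at 5000 per well, with untreated wells as negative control and no-reagent wells as positive control.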

For assay [2], the system named is PTPN2. Put plainly: HiBiT-Degradation B16F10.4 PTPN2. In kind it is cell-based. The following applies: B16F10.4 cells, 24.0 hours. For orientation: HiBiT is a short tag that completes a luciferase, so light tracks the accessible tagged protein.

This is an account of results in US20240383886A1, “Protein Tyrosine Phosphatase Degraders and Methods of Use Thereof” (CALICO LIFE SCIENCES LLC, priority 2019, published 2024).

Some results are limits rather than exact numbers.

Regarding `O=C1CCC(N2Cc3c(NCC(=O)N4CCC(C(=O)Nc5ccc6c(F)c(N7CC(=O)NS7(=O)=O)c(O)cc6c5)CC4)cccc3C2=O)C(=O)N1` (stereo not drawn) [Example 65], the DC50 on PTPN2 [1] and with PTPN2 [2] was 200 to 1000 nM each time.

`CC(Nc1cccc2c1C(=O)N(C1CCC(=O)NC1=O)C2=O)c1cn(CCC(=O)Nc2ccc3c(F)c(N4CC(=O)NS4(=O)=O)c(O)cc3c2)nn1` (stereo not drawn) [Example 66]: the DC50 (in general, the concentration at which degradation of the target reaches its halfway point) at PTPN2 [1] is 200 to 1000 nM; in the assay on PTPN2 [2], no less than 1000 nM.

Take `O=C1CCC(N2C(=O)c3cccc(NCc4cn(C5CCN(CC(=O)Nc6ccc7c(F)c(N8CC(=O)NS8(=O)=O)c(O)cc7c6)CC5)nn4)c3C2=O)C(=O)N1` (stereo not drawn) [Example 67]: the results for the DC50 at PTPN2 [1] and with PTPN2 [2] were 200 to 1000 nM and no less than 1000 nM, respectively.

Consider `O=C1CCC(N2C(=O)c3cccc(NCc4cn(CCC(=O)Nc5ccc6c(F)c(N7CC(=O)NS7(=O)=O)c(O)cc6c5)nn4)c3C2=O)C(=O)N1` (stereo not drawn) [Example 68], for which the figures for the DC50 at PTPN2 [1] and in the assay on PTPN2 [2] were 200 to 1000 nM and no less than 1000 nM, respectively.

With `O=C1CCC(N2C(=O)c3cccc(NCc4cn(CCC(=O)Nc5ccc6c(Cl)c(N7CC(=O)NS7(=O)=O)c(O)cc6c5)nn4)c3C2=O)C(=O)N1` (stereo not drawn) [Example 69], the DC50 at PTPN2 [1] and in the assay on PTPN2 [2] was no less than 1000 nM in each case.

Turning to `Cn1c(=O)n(C2CCC(=O)NC2=O)c2ccc(C3CCN(CCCC(=O)Nc4ccc5c(F)c(N6CC(=O)NS6(=O)=O)c(O)cc5c4)CC3)cc21` (stereo not drawn) [Example 70], the DC50 at PTPN2 [1] and in the assay on PTPN2 [2] was no less than 1000 nM throughout.

Take `Cn1c(=O)n(C2CCC(=O)NC2=O)c2ccc(C3CCN(C(=O)c4ccc5c(F)c(N6CC(=O)NS6(=O)=O)c(O)cc5c4)CC3)cc21` (stereo not drawn) [Example 71]: the DC50 on PTPN2 [1] and in the assay with PTPN2 [2] was no less than 1000 nM in each case.

Regarding `Cn1c(=O)n(C2CCC(=O)NC2=O)c2ccc(C3CCN(CCC(=O)N4CCC(c5ccc6cc(O)c(N7CC(=O)NS7(=O)=O)c(F)c6c5)C4)CC3)cc21` (stereo not drawn) [Example 72, 3-[5-[1-[3-[3-[8-fluoro-6-hydroxy-7-(1,1,4-trioxo-1,2,5-thiadiazolidin-2-yl)-2-naphthyl]pyrrolidin-1-yl]-3-oxo-propyl]-4-piperidyl]-3-methyl-2-oxo-benzimidazol-1-yl]piperidine-2,6-dione], the DC50 fell in the range of 10 to 50 nM at PTPN2 [1] and 50 to 200 nM in the assay with PTPN2 [2].

As for `Cn1c(=O)n(C2CCC(=O)NC2=O)c2ccc(C3CCN(C(=O)Cn4cc(-c5ccc6c(F)c(N7CC(=O)NS7(=O)=O)c(O)cc6c5)cn4)CC3(F)F)cc21` (stereo not drawn) [Example 73, 3-[5-[3,3-difluoro-1-[2-[4-[5-fluoro-7-hydroxy-6-(1,1,4-trioxo-1,2,5-thiadiazolidin-2-yl)-2-naphthyl]pyrazol-1-yl]acetyl]-4-piperidyl]-3-methyl-2-oxo-benzimidazol-1-yl]piperidine-2,6-dione], the DC50 on PTPN2 [1] and in the assay with PTPN2 [2] was 10 to 50 nM each time.

`Cn1c(=O)n(C2CCC(=O)NC2=O)c2ccc(C3CCN(C(=O)Cn4cc(-c5ccc6c(F)c(N7CC(=O)NS7(=O)=O)c(O)cc6c5)cn4)CC3)cc21` (stereo not drawn) [Example 74, 3-[5-[1-[2-[4-[5-fluoro-7-hydroxy-6-(1,1,4-trioxo-1,2,5-thiadiazolidin-2-yl)-2-naphthyl]pyrazol-1-yl]acetyl]-4-piperidyl]-3-methyl-2-oxo-benzimidazol-1-yl]piperidine-2,6-dione]: the values for the DC50 on PTPN2 [1] and in the assay with PTPN2 [2] were less than 10 nM and 50 to 200 nM, respectively.

As for `Cn1c(=O)n(C2CCC(=O)NC2=O)c2ccc(-c3ccc(CC(=O)Nc4ccc5c(F)c(N6CC(=O)NS6(=O)=O)c(O)cc5c4)cc3)cc21` (stereo not drawn) [Example 77, 2-[4-[1-(2,6-dioxo-3-piperidyl)-3-methyl-2-oxo-benzimidazol-5-yl]phenyl]-N-[5-fluoro-7-hydroxy-6-(1,1,4-trioxo-1,2,5-thiadiazolidin-2-yl)-2-naphthyl]acetamide], the half-maximal degradation concentration (DC50) at PTPN2 [1] and in the assay with PTPN2 [2] was 10 to 50 nM throughout.

`Cn1c(=O)n(C2CCC(=O)NC2=O)c2ccc(N3CCC(CC(=O)Nc4ccc5c(F)c(N6CC(=O)NS6(=O)=O)c(O)cc5c4)CC3)cc21` (stereo not drawn) [Example 78, N-(6-(1,1-dioxido-4-oxo-1,2,5-thiadiazolidin-2-yl)-5-fluoro-7-hydroxynaphthalen-2-yl)-2-(1-(1-(2,6-dioxopiperidin-3-yl)-3-methyl-2-oxo-2,3-dihydro-1H-benzo[d]imidazol-5-yl)piperidin-4-yl)acetamide]: the DC50 at PTPN2 [1] and in the assay with PTPN2 [2] was 10 to 50 nM each time.

Turning to `Cn1nc(C2CCC(=O)NC2=O)c2ccc(C3CCN(C(=O)Cn4cc(-c5ccc6c(F)c(N7CC(=O)NS7(=O)=O)c(O)cc6c5)cn4)CC3)cc21` (stereo not drawn) [Example 79, 3-[6-[1-[2-[4-[5-fluoro-7-hydroxy-6-(1,1,4-trioxo-1,2,5-thiadiazolidin-2-yl)-2-naphthyl]pyrazol-1-yl]acetyl]-4-piperidyl]-1-methyl-indazol-3-yl]piperidine-2,6-dione], the DC50 on PTPN2 [1] was in the range of 10 to 50 nM; with PTPN2 [2], 200 to 1000 nM.

For `Cn1c(=O)n(C2CCC(=O)NC2=O)c2ccc(C3CCN(CC(=O)N4CC(Oc5ccc6cc(O)c(N7CC(=O)NS7(=O)=O)c(F)c6c5)C4)CC3(F)F)cc21` (stereo not drawn) [Example 80, 3-[5-[3,3-difluoro-1-[2-[3-[[8-fluoro-6-hydroxy-7-(1,1,4-trioxo-1,2,5-thiadiazolidin-2-yl)-2-naphthyl]oxy]azetidin-1-yl]-2-oxo-ethyl]-4-piperidyl]-3-methyl-2-oxo-benzimidazol-1-yl]piperidine-2,6-dione], the DC50 at PTPN2 [1] lay within 10 to 50 nM; in the assay with PTPN2 [2], 50 to 200 nM.

As for `Cn1c(=O)n(C2CCC(=O)NC2=O)c2ccc(N3CCC(O)(CC(=O)Nc4ccc5c(F)c(N6CC(=O)NS6(=O)=O)c(O)cc5c4)CC3)cc21` (stereo not drawn) [Example 82, 2-[1-[1-(2,6-dioxo-3-piperidyl)-3-methyl-2-oxo-benzimidazol-5-yl]-4-hydroxy-4-piperidyl]-N-[5-fluoro-7-hydroxy-6-(1,1,4-trioxo-1,2,5-thiadiazolidin-2-yl)-2-naphthyl]acetamide], the DC50 at PTPN2 [1] was less than 10 nM; with PTPN2 [2], 200 to 1000 nM.

For the molecule `Cn1nc(C2CCC(=O)NC2=O)c2ccc(N3CCC(O)(CC(=O)Nc4ccc5c(F)c(N6CC(=O)NS6(=O)=O)c(O)cc5c4)CC3)cc21` (stereo not drawn) [Example 83, 2-[1-[3-(2,6-dioxo-3-piperidyl)-1-methyl-indazol-6-yl]-4-hydroxy-4-piperidyl]-N-[5-fluoro-7-hydroxy-6-(1,1,4-trioxo-1,2,5-thiadiazolidin-2-yl)-2-naphthyl]acetamide], the figures for the DC50 at PTPN2 [1] and in the assay with PTPN2 [2] were less than 10 nM and 10 to 50 nM, respectively.

On to `Cn1c(=O)n(C2CCC(=O)NC2=O)c2ccc(N3CCC(OCC(=O)Nc4ccc5c(F)c(N6CC(=O)NS6(=O)=O)c(O)cc5c4)CC3)cc21` (stereo not drawn) [Example 84, 2-[[1-[1-(2,6-dioxo-3-piperidyl)-3-methyl-2-oxo-benzimidazol-5-yl]-4-piperidyl]oxy]-N-[5-fluoro-7-hydroxy-6-(1,1,4-trioxo-1,2,5-thiadiazolidin-2-yl)-2-naphthyl]acetamide], for which the DC50 on PTPN2 [1] fell in the range of 10 to 50 nM; in the assay on PTPN2 [2] it was 50 to 200 nM.

With `CC(C)n1c(=O)n(C2CCC(=O)NC2=O)c2ccc(C3CCN(CC(=O)NCCOc4ccc5cc(O)c(N6CC(=O)NS6(=O)=O)c(F)c5c4)CC3)cc21` (stereo not drawn) [Example 85, 2-[4-[1-(2,6-dioxo-3-piperidyl)-3-isopropyl-2-oxo-benzimidazol-5-yl]-1-piperidyl]-N-[2-[[8-fluoro-6-hydroxy-7-(1,1,4-trioxo-1,2,5-thiadiazolidin-2-yl)-2-naphthyl]oxy]ethyl]acetamide], the figures for the DC50 on PTPN2 [1] and in the assay with PTPN2 [2] were 50 to 200 nM and 200 to 1000 nM, respectively.

For `Cn1c(=O)n(C2CCC(=O)NC2=O)c2ccc(C3CCN(C4CC(C(=O)Nc5ccc6c(F)c(N7CC(=O)NS7(=O)=O)c(O)cc6c5)C4)CC3)cc21` (stereo not drawn) [Example 86, 3-[4-[1-(2,6-dioxo-3-piperidyl)-3-methyl-2-oxo-benzimidazol-5-yl]-1-piperidyl]-N-[5-fluoro-7-hydroxy-6-(1,1,4-trioxo-1,2,5-thiadiazolidin-2-yl)-2-naphthyl]cyclobutanecarboxamide], the DC50 on PTPN2 [1] was in the range of 10 to 50 nM; in the assay with PTPN2 [2], 50 to 200 nM.

As to `Cn1c(=O)n(C2CCC(=O)NC2=O)c2ccc(C3CCN(C(=O)C(=O)Nc4ccc5c(F)c(N6CC(=O)NS6(=O)=O)c(O)cc5c4)CC3)cc21` (stereo not drawn) [Example 87, 2-[4-[1-(2,6-dioxo-3-piperidyl)-3-methyl-2-oxo-benzimidazol-5-yl]-1-piperidyl]-N-[5-fluoro-7-hydroxy-6-(1,1,4-trioxo-1,2,5-thiadiazolidin-2-yl)-2-naphthyl]-2-oxo-acetamide], the DC50 at PTPN2 [1] and with PTPN2 [2] was 10 to 50 nM in each case.

Consider `Cn1c(=O)n(C2CCC(=O)NC2=O)c2ccc(C3CCN(CC(=O)N4CC=C(c5ccc6cc(O)c(N7CC(=O)NS7(=O)=O)c(F)c6c5)C4)CC3)cc21` (stereo not drawn) [Example 88, 3-[5-[1-[2-[3-[8-fluoro-6-hydroxy-7-(1,1,4-trioxo-1,2,5-thiadiazolidin-2-yl)-2-naphthyl]-2,5-dihydropyrrol-1-yl]-2-oxo-ethyl]-4-piperidyl]-3-methyl-2-oxo-benzimidazol-1-yl]piperidine-2,6-dione], for which the DC50 on PTPN2 [1] and with PTPN2 [2] was 50 to 200 nM throughout.
